pIC50: −log10 of the molar value.
Experiments:
[1] = Toxicity in Kunming female mouse assessed as balloon like degeneration of liver at 100 mg/kg, po administered every other day for 14 days by H and E staining based assay; format: organism-based; details: in vivo, 336 h, time 14 day
[2] = Subacute toxicity in Kunming male mouse assessed as change in body weight at 100 mg/kg, po administered every other day for 14 days; format: organism-based; details: in vivo, 336 h, time 14 day
[3] = Subacute toxicity in Kunming mouse assessed as abnormal behavior at 100 mg/kg, po administered every other day for 14 days; format: organism-based; details: in vivo, 336 h, time 14 day
[4] = Clearance in Sprague-Dawley rat at 2 mg/kg, iv measured upto 24 hrs by LC-MS/MS-AR analysis; format: ADME, organism-based; details: in vivo
[5] = Tmax in Sprague-Dawley rat at 2 mg/kg, po measured upto 24 hrs by LC-MS/MS-AR analysis; format: ADME, organism-based; details: in vivo
Mus musculus [6] = experiment: Reduction in serum uric acid level in acute hyperuricemia state Kunming mouse model assessed as SUA level at 1 mg/kg, po (reference value: 1037 +/- 106.59 uM); format: functional
[7] = Half life in Sprague-Dawley rat at 2 mg/kg, po measured upto 24 hrs by LC-MS/MS-AR analysis; format: ADME, organism-based; details: in vivo
[8] = Acute toxicity in Kunming mouse assessed as fatality rate at 500 mg/kg, po administered as single dose monitored for 7 days; format: organism-based; details: in vivo, po, 500 mg/kg, 168 h, time 7 day
[9] = Toxicity in Kunming female mouse assessed as coagulation necrosis of hepatocyte at 100 mg/kg, po administered every other day for 14 days by H and E staining based assay; format: organism-based; details: 336 h, time 14 day
[10] = Cmax in Sprague-Dawley rat at 2 mg/kg, po measured upto 24 hrs by LC-MS/MS-AR analysis; format: ADME, organism-based; details: in vivo
Rattus norvegicus [11] = experiment: Potency index, ratio of compound to lesinurad for reduction in serum uric acid level in po dosed acute hyperuricemia state Sprague-Dawley rat model assessed as decrease ratio of SUA level; format: functional
[12] = Acute toxicity in Kunming mouse assessed as lethargy at 250 to 1000 mg/kg, po administered as single dose monitored for 7 days; format: organism-based; details: in vivo, 168 h, dose 250-1000 mg/kg, time 7 day
[13] = AUC (0 to t) in Sprague-Dawley rat at 2 mg/kg, iv measured upto 24 hrs by LC-MS/MS-AR analysis; format: ADME, organism-based; details: in vivo
[14] = Tmax in Sprague-Dawley rat at 2 mg/kg, iv measured upto 24 hrs by LC-MS/MS-AR analysis; format: ADME, organism-based; details: in vivo
[15] = target: Xanthine dehydrogenase/oxidase (Bos taurus, UniProt P80457); experiment: Inhibition of bovine XOD using xanthine as substrate assessed as inhibitory ratio at 10 uM by spectrophotometric analysis relative to control; details: cattle
[16] = Toxicity in Kunming female mouse assessed as pathological changes at 100 mg/kg, po administered every other day for 14 days by H and E staining based assay; format: organism-based; details: in vivo, 336 h, time 14 day
[17] = AUC (0 to t) in Sprague-Dawley rat at 2 mg/kg, po measured upto 24 hrs by LC-MS/MS-AR analysis; format: ADME, organism-based; details: in vivo
Rattus norvegicus [18] = experiment: Reduction in serum uric acid level in po dosed acute hyperuricemia state Sprague-Dawley rat model assessed as SUA level (reference value: 955.20 +/- 85.56 uM); format: functional
Mus musculus [19] = organism: Mus musculus; experiment: Reduction in serum uric acid level in chronic hyperuricemia state Kunming mouse model assessed as SUA level by measuring decrease ratio relative to control; format: functional; parameters: scale not given: the % may be the effect or the level left
Cytochrome P450 2C19 = Cytochrome P450 2C19 (Homo sapiens, UniProt P33261); experiment: Inhibition of CYP2C19 in human liver microsomes measured after 40 mins incubation by LC-MS/MS analysis; format: ADME, Microsome
[20] = AUC (0 to infinity) in Sprague-Dawley rat at 2 mg/kg, po measured upto 24 hrs by LC-MS/MS-AR analysis; format: ADME, organism-based; details: in vivo
[21] = target: T1, Solute carrier family 2, facilitated glucose transporter member 9 (Mus musculus, UniProt Q3T9X0); experiment: Inhibition of mouse EGFP-tagged GLUT9 expressed in HEK293T cells assessed as inhibition rate by measuring relative current by patch clamp electrophysiological analysis relative to control; format: cell-based
T1 sequence (Q3T9X0 whole entry): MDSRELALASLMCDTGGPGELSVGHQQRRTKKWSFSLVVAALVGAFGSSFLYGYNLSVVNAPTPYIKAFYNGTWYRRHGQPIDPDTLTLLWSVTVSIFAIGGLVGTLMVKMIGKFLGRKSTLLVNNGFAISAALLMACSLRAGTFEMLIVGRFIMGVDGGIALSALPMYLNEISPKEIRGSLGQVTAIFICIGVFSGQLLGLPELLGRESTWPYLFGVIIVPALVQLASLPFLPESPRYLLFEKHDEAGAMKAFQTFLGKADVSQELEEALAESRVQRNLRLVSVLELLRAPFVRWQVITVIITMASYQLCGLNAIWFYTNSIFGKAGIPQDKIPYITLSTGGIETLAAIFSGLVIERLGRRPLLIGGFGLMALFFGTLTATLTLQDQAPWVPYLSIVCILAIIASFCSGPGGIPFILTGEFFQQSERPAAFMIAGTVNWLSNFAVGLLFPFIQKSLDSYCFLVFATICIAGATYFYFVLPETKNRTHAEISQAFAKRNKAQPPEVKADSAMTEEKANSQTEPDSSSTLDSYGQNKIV

Mus musculus [22] = organism: Mus musculus; experiment: Reduction in serum uric acid level in acute hyperuricemia state Kunming mouse model assessed as SUA level; format: functional
Mus musculus [23] = experiment: Reduction in serum uric acid level in acute hyperuricemia state Kunming mouse model assessed as SUA level by measuring decrease ratio at 1 mg/kg, po relative to control; format: functional; parameters: scale not given: the % may be the effect or the level left
Cytochrome P450 1A2 = target: T2, Cytochrome P450 1A2 (Homo sapiens, UniProt P05177); experiment: Inhibition of CYP1A2 in human liver microsomes measured after 40 mins incubation by LC-MS/MS analysis; format: ADME, Microsome
T2 sequence (P05177 whole entry): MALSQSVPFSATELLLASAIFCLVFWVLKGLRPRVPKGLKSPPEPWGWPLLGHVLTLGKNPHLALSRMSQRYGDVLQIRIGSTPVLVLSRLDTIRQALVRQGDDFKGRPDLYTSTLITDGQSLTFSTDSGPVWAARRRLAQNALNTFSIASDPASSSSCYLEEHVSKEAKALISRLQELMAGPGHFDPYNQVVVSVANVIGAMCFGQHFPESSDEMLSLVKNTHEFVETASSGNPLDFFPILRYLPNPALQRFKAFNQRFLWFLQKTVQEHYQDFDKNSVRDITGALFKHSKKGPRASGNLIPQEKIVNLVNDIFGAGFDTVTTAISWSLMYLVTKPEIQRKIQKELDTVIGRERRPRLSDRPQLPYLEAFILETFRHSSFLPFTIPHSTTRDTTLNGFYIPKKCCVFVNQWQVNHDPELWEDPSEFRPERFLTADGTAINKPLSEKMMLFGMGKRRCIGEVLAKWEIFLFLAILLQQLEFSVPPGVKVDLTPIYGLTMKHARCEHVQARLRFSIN

Xanthine dehydrogenase/oxidase, sequence (P80457 whole entry): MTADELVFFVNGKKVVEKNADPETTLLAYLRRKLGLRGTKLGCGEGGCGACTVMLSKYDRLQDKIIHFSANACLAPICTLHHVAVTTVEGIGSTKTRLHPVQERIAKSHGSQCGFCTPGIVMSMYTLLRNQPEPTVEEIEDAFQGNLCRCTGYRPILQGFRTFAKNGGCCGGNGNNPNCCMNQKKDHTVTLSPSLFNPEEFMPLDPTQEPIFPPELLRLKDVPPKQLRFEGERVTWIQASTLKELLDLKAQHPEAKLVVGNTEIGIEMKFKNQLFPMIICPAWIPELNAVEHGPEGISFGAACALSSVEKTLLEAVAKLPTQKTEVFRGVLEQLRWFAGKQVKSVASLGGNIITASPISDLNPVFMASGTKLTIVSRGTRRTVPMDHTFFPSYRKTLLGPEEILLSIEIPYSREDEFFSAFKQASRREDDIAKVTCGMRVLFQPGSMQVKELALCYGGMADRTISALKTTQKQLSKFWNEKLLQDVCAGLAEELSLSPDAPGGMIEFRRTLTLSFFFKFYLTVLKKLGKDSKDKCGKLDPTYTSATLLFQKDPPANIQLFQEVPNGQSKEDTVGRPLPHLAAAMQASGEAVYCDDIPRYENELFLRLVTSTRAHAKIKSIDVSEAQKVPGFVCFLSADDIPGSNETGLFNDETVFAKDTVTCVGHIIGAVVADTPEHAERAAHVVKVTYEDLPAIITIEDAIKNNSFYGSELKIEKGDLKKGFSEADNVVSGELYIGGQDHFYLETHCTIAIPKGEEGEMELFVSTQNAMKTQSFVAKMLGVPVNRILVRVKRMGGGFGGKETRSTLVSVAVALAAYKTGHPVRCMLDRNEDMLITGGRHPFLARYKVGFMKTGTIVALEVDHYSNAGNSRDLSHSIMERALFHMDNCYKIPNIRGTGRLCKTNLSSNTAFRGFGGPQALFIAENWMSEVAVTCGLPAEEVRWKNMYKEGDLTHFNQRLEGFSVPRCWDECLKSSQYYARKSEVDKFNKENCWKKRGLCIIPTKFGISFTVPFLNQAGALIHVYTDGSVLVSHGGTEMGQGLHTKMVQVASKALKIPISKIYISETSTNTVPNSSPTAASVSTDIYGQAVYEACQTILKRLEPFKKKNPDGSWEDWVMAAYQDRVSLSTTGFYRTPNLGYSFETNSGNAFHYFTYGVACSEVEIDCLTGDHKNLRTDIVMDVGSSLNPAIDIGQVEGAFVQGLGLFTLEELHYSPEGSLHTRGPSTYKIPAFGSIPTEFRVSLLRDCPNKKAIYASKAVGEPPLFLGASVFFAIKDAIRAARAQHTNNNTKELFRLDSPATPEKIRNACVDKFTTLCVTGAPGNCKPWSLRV
Cytochrome P450 2C19, sequence (P33261 whole entry): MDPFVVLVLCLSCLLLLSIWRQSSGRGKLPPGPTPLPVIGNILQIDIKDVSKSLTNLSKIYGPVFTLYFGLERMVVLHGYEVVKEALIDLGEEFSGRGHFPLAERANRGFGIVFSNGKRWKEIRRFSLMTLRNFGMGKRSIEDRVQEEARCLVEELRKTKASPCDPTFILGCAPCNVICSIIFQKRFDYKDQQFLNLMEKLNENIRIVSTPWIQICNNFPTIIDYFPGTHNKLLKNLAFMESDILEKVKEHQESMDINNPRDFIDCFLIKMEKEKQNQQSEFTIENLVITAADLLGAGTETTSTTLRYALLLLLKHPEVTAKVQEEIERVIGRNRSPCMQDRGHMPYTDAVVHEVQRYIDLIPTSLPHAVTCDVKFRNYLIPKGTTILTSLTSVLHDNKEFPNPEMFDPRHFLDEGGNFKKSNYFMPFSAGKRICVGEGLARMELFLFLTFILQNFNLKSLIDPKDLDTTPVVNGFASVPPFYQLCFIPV

With `O=C(O)CCCSc1nc(Nc2ccc(C3CC3)c3ccccc23)c2sccc2n1` the Activity [1] was “Non-Toxic”, the Activity [2] was “Toxic” and the Activity [3] was “Non-Toxic”. It also gave a clearance [4] of 17 mL/min/kg, a Tmax [5] of 15 min and an Activity (Mus musculus [6]) of 208.6 µM. The half-life [7] was 108 min, the Activity [8] was “Non-Toxic” and the Activity [9] was “Non-Toxic”. The Cmax [10] was 1270 ng/mL, the Ratio (Rattus norvegicus [11]) was 1.8 and the Activity [12] was “Non-Toxic”. It also gave an AUC(0-t) at 24 h [13] of 1900 ng·h/mL, a Tmax [14] of 4.98 min and an inhibition at 10 µM [15] of 11.7%. The Activity [16] was “Non-Toxic”, the AUC(0-t) at 24 h [17] was 1810 ng·h/mL and the Activity (Rattus norvegicus [18]) was 190.8 µM. It also gave an Activity (Mus musculus [19]) of 76.33%, a pIC50 (Cytochrome P450 2C19) of 5.23 and an AUC [20] of 1929.1 ng·h/mL. For the same molecule, the pIC50 [21] was 4.74, the Activity (Mus musculus [22]) was 191.6 µM and the Activity (Mus musculus [23]) was 89.08%. For the same molecule, the pIC50 (Cytochrome P450 1A2) was 5.02.

Reference: ChEMBL document CHEMBL5528083, “Discovery of a Novel Thienopyrimidine Compound as a Urate Transporter 1 and Glucose Transporter 9 Dual Inhibitor with Improved Efficacy and Favorable Druggability” (J Med Chem, 2024)
